{"source": "patent US20150031572A1", "about": "“MEANS AND METHODS FOR ASSESSING NEURONAL TOXICITY” (priority 2012, published 2015)", "key": {"[1]": {"conditions": "rats exposed to sulcotrione; cited from earlier work"}, "[2]": {"test": "Plasma metabolite profiling (GC-MS, LC-MS, SPE-LC-MS) of rats dosed once daily over 28 days; treatment ratios versus untreated control", "format": "in vivo, rat", "conditions": "for 5-Oxoproline, plasma metabolite ratio versus control / Alanine, plasma metabolite ratio versus control / Arginine (second line of the table), plasma metabolite ratio versus control / Arginine, plasma metabolite ratio versus control / Citrulline, plasma metabolite ratio versus control / Glutamine, plasma metabolite ratio versus control / Proline, plasma metabolite ratio versus control / Tyrosine, plasma metabolite ratio versus control / Creatinine, ratio versus control: male rats; for 5-Oxoproline, plasma metabolite ratio versus control / Alanine, plasma metabolite ratio versus control / Arginine (second line of the table), plasma metabolite ratio versus control / Arginine, plasma metabolite ratio versus control / Citrulline, plasma metabolite ratio versus control / Glutamine, plasma metabolite ratio versus control / Proline, plasma metabolite ratio versus control / Tyrosine, plasma metabolite ratio versus control: high dose; for Creatinine, ratio versus control: Table 12a", "procedure,_shortened": "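Male and female rats (5/sex/group) dosed once daily for 28 days; fasted anaesthetized animals bled retro-orbitally (EDTA plasma) on days 7, 14, 28, stored −80 °C under N2. Polar and lipid fractions profiled by GC-MS (derivatized), LC-MS/MRM; steroids by online SPE-LC-MS. Pool-normalized data; treatment ratios vs sex-matched controls, Welch test p-values.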"}, "[3]": {"conditions": "plasma, female rats, day 28, high dose, Table 6b"}, "[4]": {"conditions": "plasma, female rats, day 28, high dose, Table 8c"}, "[5]": {"conditions": "plasma, female rats, day 28, high dose, Table 8d"}}, "note": "Counter-ions that a name gives are not always drawn. Marks after values point to notes of the source that are not given here.", "data": [{"molecule": "CS(=O)(=O)c1ccc(C(=O)C2C(=O)CCCC2=O)c(Cl)c1", "note": "[sulcotrione]", "values": [{"measurement": "corneal lesions", "setting": "[1]", "result": "corneal lesions that varied in severity from partial or hazy opacity to complete opacity"}]}, {"molecule": "Lead acetate trihydrate", "values": [{"measurement": "5-Oxoproline, plasma metabolite ratio versus control", "setting": "[2]; day 7 (m7)", "result": 0.88}, {"measurement": "Alanine, plasma metabolite ratio versus control", "setting": "[2]; day 7 (m7)", "result": 0.68}, {"measurement": "Arginine (second line of the table), plasma metabolite ratio versus control", "setting": "[2]; day 7 (m7)", "result": 0.91}, {"measurement": "Arginine, plasma metabolite ratio versus control", "setting": "[2]; day 7 (m7)", "result": 0.86}, {"measurement": "Citrulline, plasma metabolite ratio versus control", "setting": "[2]; day 7 (m7)", "result": 0.94}, {"measurement": "Glutamine, plasma metabolite ratio versus control", "setting": "[2]; day 7 (m7)", "result": 0.83}, {"measurement": "Proline, plasma metabolite ratio versus control", "setting": "[2]; day 7 (m7)", "result": 0.88}, {"measurement": "Tyrosine, plasma metabolite ratio versus control", "setting": "[2]; day 7 (m7)", "result": 0.92}, {"measurement": "5-Oxoproline, plasma metabolite ratio versus control", "setting": "[2]; day 14 (m14)", "result": 0.92}, {"measurement": "Alanine, plasma metabolite ratio versus control", "setting": "[2]; day 14 (m14)", "result": 0.75}, {"measurement": "Arginine (second line of the table), plasma metabolite ratio versus control", "setting": "[2]; day 14 (m14)", "result": 0.90}, {"measurement": "Arginine, plasma metabolite ratio versus control", "setting": "[2]; day 14 (m14)", "result": 0.87}, {"measurement": "Citrulline, plasma metabolite ratio versus control", "setting": "[2]; day 14 (m14)", "result": 0.90}, {"measurement": "Glutamine, plasma metabolite ratio versus control", "setting": "[2]; day 14 (m14)", "result": 0.83}, {"measurement": "Proline, plasma metabolite ratio versus control", "setting": "[2]; day 14 (m14)", "result": 0.84}, {"measurement": "Tyrosine, plasma metabolite ratio versus control", "setting": "[2]; day 14 (m14)", "result": 0.88}, {"measurement": "5-Oxoproline, plasma metabolite ratio versus control", "setting": "[2]; day 28 (m28)", "result": 0.86}, {"measurement": "Alanine, plasma metabolite ratio versus control", "setting": "[2]; day 28 (m28)", "result": 0.75}, {"measurement": "Arginine (second line of the table), plasma metabolite ratio versus control", "setting": "[2]; day 28 (m28)", "result": 0.89}, {"measurement": "Arginine, plasma metabolite ratio versus control", "setting": "[2]; day 28 (m28)", "result": 0.90}, {"measurement": "Citrulline, plasma metabolite ratio versus control", "setting": "[2]; day 28 (m28)", "result": 0.91}, {"measurement": "Glutamine, plasma metabolite ratio versus control", "setting": "[2]; day 28 (m28)", "result": 0.87}, {"measurement": "Proline, plasma metabolite ratio versus control", "setting": "[2]; day 28 (m28)", "result": 0.88}, {"measurement": "Tyrosine, plasma metabolite ratio versus control", "setting": "[2]; day 28 (m28)", "result": 0.90}, {"measurement": "Creatinine, ratio versus control", "setting": "[2]; plasma, day 7, high dose", "result": 1.16}, {"measurement": "Creatinine, ratio versus control", "setting": "[2]; plasma, day 14, high dose", "result": 1.32}, {"measurement": "Creatinine, ratio versus control", "setting": "[2]; plasma, day 28, high dose", "result": 1.66}]}, {"molecule": "CC(C)C[C@H]1C(=O)N2CCC[C@H]2[C@]2(O)O[C@](NC(=O)[C@@H]3C=C4c5cccc6[nH]c(Br)c(c56)C[C@H]4N(C)C3)(C(C)C)C(=O)N12", "note": "[Bromocriptine Mesylate]", "values": [{"measurement": "Isoleucine, ratio versus control", "setting": "[2]; plasma, female rats, day 28, high dose, Table 6a", "result": "1.14*"}, {"measurement": "14-Methylhexadecanoic acid, ratio versus control", "setting": "[2]; [3]", "result": "0.85*"}, {"measurement": "16-Methylheptadecanoic acid, ratio versus control", "setting": "[2]; [3]", "result": "0.51*"}, {"measurement": "17-Methyloctadecanoic acid, ratio versus control", "setting": "[2]; [3]", "result": "0.67*"}, {"measurement": "Ceramide (d18:1,C24:1), ratio versus control", "setting": "[2]; [3]", "result": "0.6*"}, {"measurement": "Choline plasmalogen No 03, ratio versus control", "setting": "[2]; [3]", "result": "0.62*"}, {"measurement": "Isopalmitic acid (C16:0), ratio versus control", "setting": "[2]; [3]", "result": "0.62*"}, {"measurement": "Lactate, ratio versus control", "setting": "[2]; [3]", "result": "0.47*"}, {"measurement": "Myristic acid (C14:0), ratio versus control", "setting": "[2]; [3]", "result": 0.84}, {"measurement": "Phosphatidylcholine (C16:0, C20:4), ratio versus control", "setting": "[2]; [3]", "result": "0.94*"}, {"measurement": "Phosphatidylcholine No 04, ratio versus control", "setting": "[2]; [3]", "result": "0.47*"}, {"measurement": "Pyruvate, ratio versus control", "setting": "[2]; [3]", "result": "0.71*"}, {"measurement": "3-Hydroxybutyrate, ratio versus control", "setting": "[2]; [4]", "result": "1.13^"}, {"measurement": "Isoleucine, ratio versus control", "setting": "[2]; [4]", "result": "1.14 *"}, {"measurement": "TAG (C16:0,C18:2), ratio versus control", "setting": "[2]; [4]", "result": "1.2 *"}, {"measurement": "16-Methylheptadecanoic acid, ratio versus control", "setting": "[2]; [5]", "result": "0.51 *"}, {"measurement": "17-Methyloctadecanoic acid, ratio versus control", "setting": "[2]; [5]", "result": "0.67 *"}, {"measurement": "Ceramide (d18:1,C24:1), ratio versus control", "setting": "[2]; [5]", "result": "0.6 *"}, {"measurement": "Phosphatidylcholine (C16:0, C20:4), ratio versus control", "setting": "[2]; [5]", "result": "0.94 *"}, {"measurement": "Phosphatidylcholine (C18:0, C20:3), ratio versus control", "setting": "[2]; [5]", "result": "0.71 *"}, {"measurement": "Pyruvate, ratio versus control", "setting": "[2]; [5]", "result": "0.71 *"}]}]}
